Assay results: US11046945B2, “Labeled glutaminase proteins, isolated glutaminase protein mutants, methods of use, and kit” (CORNELL UNIVERSITY, priority 2013, dated 2021)

Target: T1, GAC (Mus musculus, UniProt D3Z7P3)
T1 construct: plasmid (residues 72-603 for GAC, 72-674 for KGA); His-tag with thrombin cleavage site (N, cleaved yes); made in house; host or cells: pET23a vector
T1 sequence (D3Z7P3 72-603 isoform D3Z7P3-2): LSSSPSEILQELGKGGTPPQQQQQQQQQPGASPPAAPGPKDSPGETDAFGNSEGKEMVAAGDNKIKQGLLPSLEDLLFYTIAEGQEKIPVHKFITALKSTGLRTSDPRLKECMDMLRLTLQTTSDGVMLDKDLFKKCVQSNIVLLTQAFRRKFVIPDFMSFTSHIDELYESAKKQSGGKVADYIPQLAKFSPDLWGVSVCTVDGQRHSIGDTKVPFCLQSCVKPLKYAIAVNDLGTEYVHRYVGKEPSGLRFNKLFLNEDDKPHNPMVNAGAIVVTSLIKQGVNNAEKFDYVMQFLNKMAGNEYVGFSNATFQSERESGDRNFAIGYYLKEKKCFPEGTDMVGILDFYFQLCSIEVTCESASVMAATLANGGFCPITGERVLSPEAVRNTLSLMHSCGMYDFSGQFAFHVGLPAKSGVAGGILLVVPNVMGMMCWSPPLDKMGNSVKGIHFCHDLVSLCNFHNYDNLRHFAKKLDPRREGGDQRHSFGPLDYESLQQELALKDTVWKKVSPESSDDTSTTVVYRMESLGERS
Assay: Real-time glutaminase activity assay coupled to GDH (NADH fluorescence)
Type: biochemical
Settings: for inhibition of GAC activity: 10 nM 488-GAC or unlabeled WT-GAC, 20 mM glutamine, 50 mM phosphate
Procedure: [formula] where F is the normalized fluorescence at given drug concentration (i.e., F/F0), and Fsat is the normalized fluorescence at saturating concentrations of drug, as shown in FIG. 7A. Real-time activity assays were prepared in 1 mL samples, where 10 units of glutamate dehydrogenase (Sigma) and 2 mM NAD^+ (Sigma) was prepared in 50 mM Tris-Acetate pH=8.5, 0.1 mM EDTA and equilibrated at 20° C. 10 nM WT GAC was added and allowed to equilibrate 2 minutes before beginning to monitor fluorescence of 488-GAC (490 nm excitation, 520 nm emission) and NADH fluorescence (340 nm excitation, 490 nm emission). Appropriate dilutions of 968 or BPTES prepared in DMSO were injected after 30 seconds and allowed to equilibrate for 2 minutes before 180 μL of a solution of 333 mM K2HPO4, 133 mM glutamine, 50 mM Tris-Acetate pH 8.5, 0.1 mM EDTA was added to initiate GAC activation. The activity of GAC was indirectly measured by the NADH produced by the added glutamate dehydrogenase, which converts the product of glutaminase activity, glutamate, to α-ketoglutarate and ammonia through reducing NAD^+ to NADH. Because solutions containing glutamine undergo non-enzymatic degradation to glutamate, samples were further analyzed by subtracting the evolved NADH produced by glutaminase in the presence of 968, BPTES, or the equivalent volume of DMSO as a control, by the evolved NADH produced in the absence of glutaminase under identical experimental conditions. Evolved NADH was quantified using a standard curve of freshly prepared NADH (Sigma) in 50 mM Tris-Acetate pH=8.5, 0.1 mM EDTA.
Procedures for the described real-time binding and inhibition assays were adapted for 96-well microtiter format with minor alterations. Briefly, 2 μL of inhibitor or DMSO was distributed across the 96-well plate followed by addition of 200 μL 10 nM 488-GAC, unlabeled WT-GAC, or no added GAC as a negative control in 50 mM Tris-Acetate pH 8.5, 0.1 mM EDTA and immediate monitoring of 488 fluorescence (490 nm/520 nm excitation/emission, 5 nm/20 nm excitation/emission slits). […]

inhibition of GAC activity | inhibition of GAC activity at 5 nM versus 50 nM GAC (GAC decreased from 50 nM to 5 nM, 968 pre-incubated) | SMILES
potent inhibition | – | O=C(Cc1ccccc1)Nc1nnc(CCSCCc2nnc(NC(=O)Cc3ccccc3)s2)s1 [BPTES]
dose-dependent inhibition | higher efficacy and potency | CN(C)c1ccc(C2Nc3ccc4ccccc4c3C3=C2C(=O)CC(C)(C)C3)cc1Br (stereo not drawn) [compound 968]
